As a reminder, the Kd is the constant that tells how readily two partners part at equilibrium.

For assay [1], the target named is Ribosomal protein S6 kinase alpha-1 (Homo sapiens, UniProt Q15418).
For assay [2], the target named is Dual specificity tyrosine-phosphorylation-regulated kinase 1A (Homo sapiens, UniProt Q13627).
In assay [3] the target is T1, Ribosyldihydronicotinamide dehydrogenase [quinone] (Homo sapiens, UniProt P16083).
T1 sequence (P16083 whole entry): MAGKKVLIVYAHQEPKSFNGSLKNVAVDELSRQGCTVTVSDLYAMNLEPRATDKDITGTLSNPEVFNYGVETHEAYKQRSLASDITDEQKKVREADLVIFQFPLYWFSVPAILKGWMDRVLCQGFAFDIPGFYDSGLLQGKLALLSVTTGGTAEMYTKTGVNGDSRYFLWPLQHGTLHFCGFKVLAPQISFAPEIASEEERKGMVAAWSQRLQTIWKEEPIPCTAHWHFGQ

The next assay concerns the target T2, TGF-beta receptor type-1 (Homo sapiens, UniProt P36897).
T2 sequence (P36897 whole entry): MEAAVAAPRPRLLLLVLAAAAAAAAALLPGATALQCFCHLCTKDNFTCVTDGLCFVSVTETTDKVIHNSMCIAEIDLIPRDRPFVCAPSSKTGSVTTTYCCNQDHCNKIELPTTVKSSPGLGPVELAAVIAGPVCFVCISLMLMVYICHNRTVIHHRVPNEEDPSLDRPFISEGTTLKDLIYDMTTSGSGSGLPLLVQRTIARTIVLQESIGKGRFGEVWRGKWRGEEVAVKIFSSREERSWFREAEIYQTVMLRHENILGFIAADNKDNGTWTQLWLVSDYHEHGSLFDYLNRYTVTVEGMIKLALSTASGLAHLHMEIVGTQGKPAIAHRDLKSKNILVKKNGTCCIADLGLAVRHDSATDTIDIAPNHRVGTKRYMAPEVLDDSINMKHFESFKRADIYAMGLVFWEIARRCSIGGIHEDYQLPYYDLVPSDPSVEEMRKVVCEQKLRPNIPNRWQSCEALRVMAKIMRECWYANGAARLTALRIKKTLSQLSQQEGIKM

The next assay concerns the target T3, Ephrin type-B receptor 4 (Homo sapiens, UniProt P54760).
T3 sequence (P54760 whole entry): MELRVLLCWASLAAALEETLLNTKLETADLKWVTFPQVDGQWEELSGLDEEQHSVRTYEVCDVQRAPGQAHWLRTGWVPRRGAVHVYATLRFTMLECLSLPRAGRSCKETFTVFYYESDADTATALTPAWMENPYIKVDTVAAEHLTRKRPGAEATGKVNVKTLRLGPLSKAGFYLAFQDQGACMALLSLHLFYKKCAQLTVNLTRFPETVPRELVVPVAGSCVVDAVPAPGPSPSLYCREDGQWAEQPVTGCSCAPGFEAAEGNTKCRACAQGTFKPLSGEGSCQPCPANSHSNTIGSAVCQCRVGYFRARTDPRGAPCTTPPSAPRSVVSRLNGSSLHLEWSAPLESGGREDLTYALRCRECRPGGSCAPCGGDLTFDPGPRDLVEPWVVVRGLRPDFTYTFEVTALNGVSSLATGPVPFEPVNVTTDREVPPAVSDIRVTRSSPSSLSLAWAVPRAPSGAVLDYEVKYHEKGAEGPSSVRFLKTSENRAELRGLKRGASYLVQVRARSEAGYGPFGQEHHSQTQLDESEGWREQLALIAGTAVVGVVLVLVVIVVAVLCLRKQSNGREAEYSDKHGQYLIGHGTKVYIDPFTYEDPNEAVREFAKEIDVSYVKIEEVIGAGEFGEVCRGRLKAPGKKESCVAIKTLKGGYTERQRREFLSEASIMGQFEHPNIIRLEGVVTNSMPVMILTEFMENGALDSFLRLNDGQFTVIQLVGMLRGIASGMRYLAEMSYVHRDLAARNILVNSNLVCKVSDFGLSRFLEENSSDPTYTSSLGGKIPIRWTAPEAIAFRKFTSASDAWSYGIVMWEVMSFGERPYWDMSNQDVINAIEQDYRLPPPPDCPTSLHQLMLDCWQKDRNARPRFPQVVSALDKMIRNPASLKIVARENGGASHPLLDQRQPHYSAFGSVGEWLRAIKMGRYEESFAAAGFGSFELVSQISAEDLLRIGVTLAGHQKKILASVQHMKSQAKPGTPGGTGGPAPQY

Assay [4] concerns the target Serine/threonine-protein kinase B-raf (Homo sapiens, UniProt P15056).
Assay [5] addresses T4, Serine/threonine-protein kinase PLK4 (Homo sapiens, UniProt O00444).
T4 sequence (O00444 whole entry): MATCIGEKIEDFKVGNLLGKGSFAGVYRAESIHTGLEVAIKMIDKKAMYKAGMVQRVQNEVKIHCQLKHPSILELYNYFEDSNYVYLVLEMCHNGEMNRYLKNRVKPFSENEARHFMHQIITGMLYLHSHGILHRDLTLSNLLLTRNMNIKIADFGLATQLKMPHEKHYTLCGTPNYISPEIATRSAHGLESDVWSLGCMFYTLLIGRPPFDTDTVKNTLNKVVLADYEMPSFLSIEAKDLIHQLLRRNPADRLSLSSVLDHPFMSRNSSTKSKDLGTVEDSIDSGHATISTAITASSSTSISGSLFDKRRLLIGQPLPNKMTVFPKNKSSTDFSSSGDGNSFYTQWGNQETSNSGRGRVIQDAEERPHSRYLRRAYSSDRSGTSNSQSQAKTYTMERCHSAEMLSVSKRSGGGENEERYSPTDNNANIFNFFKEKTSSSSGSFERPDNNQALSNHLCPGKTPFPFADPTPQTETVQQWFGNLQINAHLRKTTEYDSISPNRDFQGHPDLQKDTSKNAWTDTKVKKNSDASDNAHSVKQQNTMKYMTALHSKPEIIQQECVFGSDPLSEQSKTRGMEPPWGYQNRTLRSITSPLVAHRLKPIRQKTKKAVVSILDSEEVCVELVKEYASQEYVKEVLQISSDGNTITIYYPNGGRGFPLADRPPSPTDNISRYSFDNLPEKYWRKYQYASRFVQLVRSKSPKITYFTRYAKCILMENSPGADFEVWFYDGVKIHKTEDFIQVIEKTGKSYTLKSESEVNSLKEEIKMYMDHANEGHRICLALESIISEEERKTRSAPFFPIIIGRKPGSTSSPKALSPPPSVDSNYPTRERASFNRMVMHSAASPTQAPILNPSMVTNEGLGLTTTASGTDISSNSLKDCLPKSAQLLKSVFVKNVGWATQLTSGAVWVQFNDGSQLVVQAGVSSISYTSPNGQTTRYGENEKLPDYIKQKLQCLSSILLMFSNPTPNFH

Active and inactive are the calls of the source. Cut-off read from the data, not from the text of the source: actives have a measured Kd and inactives only a lower limit.
Note: in the data inactive means no Kd found up to 30 µM.

Chain of Serine/threonine-protein kinase B-raf (P15056 whole entry): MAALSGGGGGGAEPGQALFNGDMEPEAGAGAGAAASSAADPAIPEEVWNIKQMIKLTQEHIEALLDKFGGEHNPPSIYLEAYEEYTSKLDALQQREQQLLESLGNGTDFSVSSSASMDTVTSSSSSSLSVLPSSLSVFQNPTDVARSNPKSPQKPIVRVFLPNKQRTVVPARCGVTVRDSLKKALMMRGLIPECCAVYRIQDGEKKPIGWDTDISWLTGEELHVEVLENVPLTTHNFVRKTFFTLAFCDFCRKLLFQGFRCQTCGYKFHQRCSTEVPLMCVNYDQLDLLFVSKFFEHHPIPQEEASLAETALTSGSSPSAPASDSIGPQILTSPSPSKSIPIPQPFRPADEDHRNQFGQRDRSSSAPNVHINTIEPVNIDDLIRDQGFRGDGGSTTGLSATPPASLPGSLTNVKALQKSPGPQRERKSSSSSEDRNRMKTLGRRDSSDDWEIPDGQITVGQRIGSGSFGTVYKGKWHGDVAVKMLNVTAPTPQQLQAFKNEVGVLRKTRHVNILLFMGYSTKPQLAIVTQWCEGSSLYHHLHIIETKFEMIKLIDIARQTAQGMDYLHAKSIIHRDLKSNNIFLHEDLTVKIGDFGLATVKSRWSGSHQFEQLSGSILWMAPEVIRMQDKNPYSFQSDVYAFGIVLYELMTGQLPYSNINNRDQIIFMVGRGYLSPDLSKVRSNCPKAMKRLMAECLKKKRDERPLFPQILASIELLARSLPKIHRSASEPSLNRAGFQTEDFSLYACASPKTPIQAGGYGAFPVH
Chain of Ribosomal protein S6 kinase alpha-1 (Q15418 whole entry): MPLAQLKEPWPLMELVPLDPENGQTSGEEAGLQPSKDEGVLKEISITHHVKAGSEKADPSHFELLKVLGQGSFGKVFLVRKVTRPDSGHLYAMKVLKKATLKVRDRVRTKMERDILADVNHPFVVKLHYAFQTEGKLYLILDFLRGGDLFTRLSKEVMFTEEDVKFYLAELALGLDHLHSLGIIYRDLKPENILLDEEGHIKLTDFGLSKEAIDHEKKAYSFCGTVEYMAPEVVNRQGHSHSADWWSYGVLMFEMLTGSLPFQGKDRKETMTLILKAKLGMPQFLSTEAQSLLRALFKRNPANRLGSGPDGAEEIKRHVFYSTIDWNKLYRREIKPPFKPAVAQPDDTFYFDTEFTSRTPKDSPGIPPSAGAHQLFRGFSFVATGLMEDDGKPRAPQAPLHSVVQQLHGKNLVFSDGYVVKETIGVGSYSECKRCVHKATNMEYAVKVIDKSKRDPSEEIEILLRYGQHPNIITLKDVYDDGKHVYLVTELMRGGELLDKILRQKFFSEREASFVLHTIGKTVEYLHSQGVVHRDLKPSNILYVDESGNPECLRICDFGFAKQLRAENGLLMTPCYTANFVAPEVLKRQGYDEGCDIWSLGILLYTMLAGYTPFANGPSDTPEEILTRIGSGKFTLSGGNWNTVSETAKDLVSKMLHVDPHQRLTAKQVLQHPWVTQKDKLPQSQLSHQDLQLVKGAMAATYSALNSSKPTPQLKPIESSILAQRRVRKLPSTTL

As for `O=C(O)[C@]1(Cc2cccc(Nc3nccs3)n2)CC[C@@H](Oc2cccc(Cl)c2F)CC1` [MK-5108], the Kd in assay [1] is > 30 µM (inactive); in assay [2], > 30 µM (inactive); in assay [3] it was > 30 µM (inactive); on TGF-beta receptor type-1, 1.7 µM (active); at Ephrin type-B receptor 4 it was > 30 µM (inactive); in assay [4], > 30 µM (inactive). Moreover, the Kd in assay [5] is 0.183 µM (active).
With `O=C1NC(=O)/C(=C/c2ccc3nccc(-c4ccncc4)c3c2)S1` [GSK-1059615], the Kd in assay [1] was > 30 µM (inactive); in assay [2], 0.314 µM (active); in assay [3], > 30 µM (inactive); at TGF-beta receptor type-1 it was > 30 µM (inactive); on Ephrin type-B receptor 4, > 30 µM (inactive); in assay [4], > 30 µM (inactive). In addition, the Kd in assay [5] was > 30 µM (inactive).
In the case of `C[C@@H](Nc1cc(F)cc(F)c1)c1cc(C(=O)N(C)C)cc2c(=O)cc(N3CCOCC3)oc12` [AZD-8186], the Kd (in assay [1]; in assay [2]; in assay [3]; at TGF-beta receptor type-1; at Ephrin type-B receptor 4; in assay [4]) was > 30 µM (inactive) each time. Also, the Kd in assay [5] is > 30 µM (inactive).
Consider `Cc1c(F)cc(C(=O)NC2CC2)cc1-c1ccc(C(=O)NCC(C)(C)C)cn1` [LOSMAPIMOD], for which the Kd (in assay [1]; in assay [2]; in assay [3]; at TGF-beta receptor type-1; on Ephrin type-B receptor 4; in assay [4]) was > 30 µM (inactive) throughout. Further, the Kd in assay [5] is > 30 µM (inactive).
For `COc1cc(CCc2cc(NC(=O)c3ccc(N4C[C@@H](C)N[C@@H](C)C4)cc3)n[nH]2)cc(OC)c1` [AZD-4547], the Kd (in assay [1]; in assay [2]; in assay [3]; on TGF-beta receptor type-1; at Ephrin type-B receptor 4; in assay [4]) was > 30 µM (inactive) throughout. In assay [5], the Kd is > 30 µM (inactive).
Consider `C=CC(=O)N1CCC(Oc2cc3c(Nc4ccc(Cl)c(Cl)c4F)ncnc3cc2OC)CC1` [POZIOTINIB], for which the Kd in assay [1] was > 30 µM (inactive); in assay [2] it was > 30 µM (inactive); in assay [3] it was > 30 µM (inactive); on TGF-beta receptor type-1, > 30 µM (inactive); on Ephrin type-B receptor 4, 0.34 µM (active); in assay [4], > 30 µM (inactive). Also, the Kd in assay [5] is > 30 µM (inactive).
On to `Cc1cc2c(F)c(Oc3ncnn4cc(OC[C@@H](C)OC(=O)[C@H](C)N)c(C)c34)ccc2[nH]1` [BRIVANIB ALANINATE], for which the Kd (in assay [1]; in assay [2]; in assay [3]; at TGF-beta receptor type-1; on Ephrin type-B receptor 4; in assay [4]) was > 30 µM (inactive) in each case. Also, the Kd in assay [5] was > 30 µM (inactive).
For the compound `C[C@@H]1CN(Cc2ccc(F)cc2)[C@@H](C)CN1C(=O)c1cc2c(C(=O)C(=O)N(C)C)cn(C)c2cc1Cl` [TALMAPIMOD], the Kd in assay [1] is > 30 µM (inactive); in assay [2], > 30 µM (inactive); in assay [3] it was 9.92 µM (active); at TGF-beta receptor type-1 it was > 30 µM (inactive); on Ephrin type-B receptor 4, > 30 µM (inactive); in assay [4], > 30 µM (inactive). Besides, the Kd in assay [5] is > 30 µM (inactive).
Consider `CN1CCC(COc2cnc(-c3cccc(Cn4nc(-c5cccc(C#N)c5)ccc4=O)c3)nc2)CC1` [TEPOTINIB], for which the Kd in assay [1] was > 30 µM (inactive); in assay [2] it was > 30 µM (inactive); in assay [3], 0.875 µM (active); on TGF-beta receptor type-1, > 30 µM (inactive); on Ephrin type-B receptor 4, > 30 µM (inactive); in assay [4], > 30 µM (inactive). For the same compound, the Kd in assay [5] was > 30 µM (inactive).
For the compound `CNC(=O)c1ccc(C)c(-n2c(C)cc(OCc3ccc(F)cc3F)c(Br)c2=O)c1` [PH-797804], the Kd (in assay [1]; in assay [2]; in assay [3]; at TGF-beta receptor type-1; on Ephrin type-B receptor 4; in assay [4]) was > 30 µM (inactive) throughout. Also, the Kd in assay [5] was > 30 µM (inactive).
In the case of `N[C@@H]1CCCN(c2c(/C=C3\SC(=O)NC3=O)cccc2-c2ccccc2)C1`, the Kd (in assay [1]; in assay [2]; in assay [3]; at TGF-beta receptor type-1; at Ephrin type-B receptor 4; in assay [4]) was > 30 µM (inactive) in each case. The Kd in assay [5] is > 30 µM (inactive).
As for `COc1cc(N2CCC(N3CCN(C)CC3)CC2)ccc1Nc1ncnc(Nc2ccccc2S(=O)(=O)C(C)C)n1` [ASP-3026], the Kd is > 30 µM (inactive) in assay [1]; > 30 µM (inactive) in assay [2]; 6.36 µM (active) in assay [3]; > 30 µM (inactive) at TGF-beta receptor type-1; > 30 µM (inactive) at Ephrin type-B receptor 4; > 30 µM (inactive) in assay [4]. Further, in assay [5], the Kd was 0.07 µM (active).
Take `Cc1cc([C@@H](C)Nc2ccccc2C(=O)O)c2nc(N3CCOCC3)cc(=O)n2c1` [AZD-6482]: the Kd (in assay [1]; in assay [2]; in assay [3]; on TGF-beta receptor type-1; at Ephrin type-B receptor 4; in assay [4]) was > 30 µM (inactive) in each case. In assay [5], the Kd was > 30 µM (inactive).
As to `CN1CCC(CNc2ccc3ncc(-c4cccc(OC(F)(F)F)c4)n3n2)CC1` [SGI-1776], the Kd (in assay [1]; in assay [2]; in assay [3]; on TGF-beta receptor type-1; at Ephrin type-B receptor 4; in assay [4]) was > 30 µM (inactive) each time. Besides, the Kd in assay [5] is > 30 µM (inactive).

The record behind these values is ChEMBL document CHEMBL3991601, “The target landscape of clinical kinase drugs” (Science, 2017).
